Where “and” joins values, the source holds several entries; their conditions need not be identical. Equal entries are not always repeated. ± gives the expanded uncertainty stated by the source.
Settings: Liquid, Vibrating tube method

Compound: CCCCC(CC)COC(=O)CCCCC(=O)OCC(CC)CCCC (stereo not given) [bis(2-ethylhexyl) adipate]
- mass density (293.15 K, 100 kPa): 925.4 ± 3.7 kg/m3
- mass density (293.15 K, 2510 kPa): 926.9 ± 3.7 kg/m3
- mass density (293.15 K, 5000 kPa): 928.4 ± 3.7 kg/m3 and 928.3 ± 3.7 kg/m3
- mass density (293.15 K, 5010 kPa): 928.4 ± 3.7 kg/m3
- mass density (293.15 K, 7550 kPa): 929.9 ± 3.7 kg/m3
- mass density (293.15 K, 10010 kPa): 931.3 ± 3.7 kg/m3
- mass density (293.15 K, 10020 kPa): 931.3 ± 3.7 kg/m3
- mass density (293.15 K, 15040 kPa): 934.2 ± 3.7 kg/m3
- mass density (293.15 K, 20020 kPa): 937 ± 3.8 kg/m3
- mass density (293.15 K, 30030 kPa): 942.4 ± 3.8 kg/m3
- mass density (293.15 K, 40010 kPa): 947.4 ± 3.8 kg/m3
- mass density (293.15 K, 40020 kPa): 947.4 ± 3.8 kg/m3
- mass density (293.15 K, 50020 kPa): 952.3 ± 3.8 kg/m3
- mass density (293.15 K, 68030 kPa): 960.4 ± 3.9 kg/m3 and 960.3 ± 3.9 kg/m3
- mass density (313.15 K, 100 kPa): 910.3 ± 3.6 kg/m3
- mass density (313.15 K, 2530 kPa): 911.9 ± 3.7 kg/m3
- mass density (313.15 K, 2540 kPa): 911.9 ± 3.7 kg/m3
- mass density (313.15 K, 5020 kPa): 913.5 ± 3.7 kg/m3
- mass density (313.15 K, 7540 kPa): 915.2 ± 3.7 kg/m3
- mass density (313.15 K, 10010 kPa): 916.7 ± 3.7 kg/m3
- mass density (313.15 K, 15010 kPa): 919.8 ± 3.7 kg/m3
- mass density (313.15 K, 20000 kPa): 922.8 ± 3.7 kg/m3
- mass density (313.15 K, 30030 kPa): 928.7 ± 3.7 kg/m3
- mass density (313.15 K, 40020 kPa): 934.1 ± 3.7 kg/m3
- mass density (313.15 K, 50010 kPa): 939.3 ± 3.8 kg/m3
- mass density (313.15 K, 68050 kPa): 947.9 ± 3.8 kg/m3
- mass density (333.15 K, 100 kPa): 895.3 ± 3.6 kg/m3
- mass density (333.15 K, 2500 kPa): 897.1 ± 3.6 kg/m3
- mass density (333.15 K, 5000 kPa): 898.8 ± 3.6 kg/m3
- mass density (333.15 K, 7480 kPa): 900.6 ± 3.6 kg/m3
- mass density (333.15 K, 9990 kPa): 902.3 ± 3.6 kg/m3
- mass density (333.15 K, 14990 kPa): 905.7 ± 3.6 kg/m3
- mass density (333.15 K, 19970 kPa): 908.9 ± 3.6 kg/m3
- mass density (333.15 K, 30010 kPa): 915.2 ± 3.7 kg/m3
- mass density (333.15 K, 39990 kPa): 921 ± 3.7 kg/m3
- mass density (333.15 K, 50020 kPa): 926.6 ± 3.7 kg/m3
- mass density (333.15 K, 68010 kPa): 935.8 ± 3.8 kg/m3
- mass density (353.15 K, 100 kPa): 880.4 ± 3.5 kg/m3
- mass density (353.15 K, 2500 kPa): 882.3 ± 3.5 kg/m3
- mass density (353.15 K, 2510 kPa): 882.3 ± 3.5 kg/m3
- mass density (353.15 K, 5000 kPa): 884.2 ± 3.5 kg/m3
- mass density (353.15 K, 7510 kPa): 886.1 ± 3.6 kg/m3
- mass density (353.15 K, 10000 kPa): 888 ± 3.6 kg/m3
- mass density (353.15 K, 15010 kPa): 891.7 ± 3.6 kg/m3
- mass density (353.15 K, 20020 kPa): 895.2 ± 3.6 kg/m3
- mass density (353.15 K, 30030 kPa): 902 ± 3.6 kg/m3
- mass density (353.15 K, 40020 kPa): 908.2 ± 3.6 kg/m3
- mass density (353.15 K, 50010 kPa): 914.1 ± 3.7 kg/m3
- mass density (353.15 K, 68010 kPa): 923.9 ± 3.7 kg/m3
- mass density (373.15 K, 100 kPa): 865.4 ± 3.5 kg/m3
- mass density (373.15 K, 2510 kPa): 867.5 ± 3.5 kg/m3
- mass density (373.15 K, 5020 kPa): 869.7 ± 3.5 kg/m3
- mass density (373.15 K, 7510 kPa): 871.7 ± 3.5 kg/m3
- mass density (373.15 K, 10010 kPa): 873.8 ± 3.5 kg/m3
- mass density (373.15 K, 14990 kPa): 877.8 ± 3.5 kg/m3
- mass density (373.15 K, 20000 kPa): 881.6 ± 3.5 kg/m3
- mass density (373.15 K, 30010 kPa): 888.9 ± 3.6 kg/m3
- mass density (373.15 K, 40000 kPa): 895.6 ± 3.6 kg/m3
- mass density (373.15 K, 50010 kPa): 901.9 ± 3.6 kg/m3
- mass density (373.15 K, 68000 kPa): 912.3 ± 3.7 kg/m3

Compound: CCCCOC(=O)CCCCC(=O)OCCCC [dibutyl hexanedioate]
- mass density (293.15 K, 100 kPa): 960.6 ± 3.8 kg/m3
- mass density (293.15 K, 2510 kPa): 962.2 ± 3.9 kg/m3
- mass density (293.15 K, 4990 kPa): 963.7 ± 3.9 kg/m3
- mass density (293.15 K, 5000 kPa): 963.7 ± 3.9 kg/m3
- mass density (293.15 K, 7510 kPa): 965.3 ± 3.9 kg/m3
- mass density (293.15 K, 9990 kPa): 966.9 ± 3.9 kg/m3
- mass density (293.15 K, 10000 kPa): 966.9 ± 3.9 kg/m3
- mass density (293.15 K, 15010 kPa): 969.9 ± 3.9 kg/m3
- mass density (293.15 K, 20000 kPa): 972.9 ± 3.9 kg/m3
- mass density (293.15 K, 29990 kPa): 978.6 ± 3.9 kg/m3
- mass density (293.15 K, 39800 kPa): 983.9 ± 3.9 kg/m3
- mass density (293.15 K, 39860 kPa): 983.8 ± 3.9 kg/m3
- mass density (293.15 K, 50020 kPa): 989.1 ± 4 kg/m3
- mass density (293.15 K, 68080 kPa): 997.3 ± 4 kg/m3
- mass density (293.15 K, 68090 kPa): 997.7 ± 4 kg/m3
- mass density (313.15 K, 100 kPa): 943.7 ± 3.8 kg/m3
- mass density (313.15 K, 2500 kPa): 945.4 ± 3.8 kg/m3
- mass density (313.15 K, 5020 kPa): 947.2 ± 3.8 kg/m3
- mass density (313.15 K, 7510 kPa): 948.9 ± 3.8 kg/m3
- mass density (313.15 K, 9990 kPa): 950.5 ± 3.8 kg/m3
- mass density (313.15 K, 15000 kPa): 953.9 ± 3.8 kg/m3
- mass density (313.15 K, 20000 kPa): 957.1 ± 3.8 kg/m3
- mass density (313.15 K, 30010 kPa): 963.3 ± 3.9 kg/m3
- mass density (313.15 K, 39810 kPa): 969 ± 3.9 kg/m3
- mass density (313.15 K, 50000 kPa): 974.6 ± 3.9 kg/m3
- mass density (313.15 K, 67990 kPa): 983.8 ± 3.9 kg/m3
- mass density (333.15 K, 100 kPa): 926.8 ± 3.7 kg/m3
- mass density (333.15 K, 2500 kPa): 928.7 ± 3.7 kg/m3
- mass density (333.15 K, 5010 kPa): 930.6 ± 3.7 kg/m3
- mass density (333.15 K, 7520 kPa): 932.5 ± 3.7 kg/m3
- mass density (333.15 K, 10010 kPa): 934.3 ± 3.7 kg/m3
- mass density (333.15 K, 15040 kPa): 938 ± 3.8 kg/m3
- mass density (333.15 K, 20000 kPa): 941.4 ± 3.8 kg/m3
- mass density (333.15 K, 30030 kPa): 948.2 ± 3.8 kg/m3
- mass density (333.15 K, 39800 kPa): 954.3 ± 3.8 kg/m3
- mass density (333.15 K, 50030 kPa): 960.4 ± 3.9 kg/m3
- mass density (333.15 K, 68030 kPa): 970.2 ± 3.9 kg/m3
- mass density (353.15 K, 100 kPa): 909.9 ± 3.6 kg/m3
- mass density (353.15 K, 2510 kPa): 912 ± 3.7 kg/m3
- mass density (353.15 K, 5000 kPa): 914.1 ± 3.7 kg/m3
- mass density (353.15 K, 7530 kPa): 916.2 ± 3.7 kg/m3
- mass density (353.15 K, 10010 kPa): 918.2 ± 3.7 kg/m3
- mass density (353.15 K, 15000 kPa): 922.2 ± 3.7 kg/m3
- mass density (353.15 K, 20000 kPa): 926 ± 3.7 kg/m3
- mass density (353.15 K, 30010 kPa): 933.3 ± 3.7 kg/m3
- mass density (353.15 K, 39840 kPa): 939.9 ± 3.8 kg/m3
- mass density (353.15 K, 49990 kPa): 946.4 ± 3.8 kg/m3
- mass density (353.15 K, 67990 kPa): 956.9 ± 3.8 kg/m3
- mass density (373.15 K, 100 kPa): 893 ± 3.6 kg/m3
- mass density (373.15 K, 2490 kPa): 895.3 ± 3.6 kg/m3
- mass density (373.15 K, 2500 kPa): 895.3 ± 3.6 kg/m3
- mass density (373.15 K, 5020 kPa): 897.6 ± 3.6 kg/m3
- mass density (373.15 K, 7510 kPa): 899.9 ± 3.6 kg/m3
- mass density (373.15 K, 10010 kPa): 902.1 ± 3.6 kg/m3
- mass density (373.15 K, 15010 kPa): 906.5 ± 3.6 kg/m3
- mass density (373.15 K, 19980 kPa): 910.6 ± 3.7 kg/m3
- mass density (373.15 K, 30010 kPa): 918.5 ± 3.7 kg/m3
- mass density (373.15 K, 39810 kPa): 925.7 ± 3.7 kg/m3
- mass density (373.15 K, 50000 kPa): 932.6 ± 3.7 kg/m3
- mass density (373.15 K, 68010 kPa): 943.8 ± 3.8 kg/m3

Source: the NIST ThermoML archive (doi:10.1016/j.fluid.2014.04.018)
